Values quoted from earlier work, collected in patent US11564888B2, “Extended release compositions comprising trihexyphenidyl” (KASHIV SPECIALTY PHARMACEUTICALS, LLC, priority 2018, dated 2023).

Details: in vivo

## OC(CCN1CCCCC1)(c1ccccc1)C1CCCCC1 (stereo not drawn) [trihexyphenidyl, α-cyclohexyl-α-phenyl-1-piperidinepropanol]
  plasma half-life: about 3.7 hours
